The test system of assay [1] is 60 human cancer cell lines. In words: NCI-60 anticancer screen, full panel. It is filed as cell-based. As to conditions: 10^−5 M one dose; for Mean Growth %: mean over the panel.
The test system of another assay is SR. Kind of assay: NCI-60 screen, Leukemia SR. The assay is classed as cell-based, human. Particulars: 10^−5 M one dose.
For a further assay, the system named is KM12. Kind of assay: NCI-60 screen, Colon Cancer KM12. Particulars: KM12, 10^−5 M one dose. It is filed as cell-based, human.
A further assay deals with SF-268. Kind of assay: NCI-60 screen, CNS Cancer SF-268. The assay is classed as cell-based, human. Particulars: SF-268, 10^−5 M one dose.
For the next assay, the system named is U251. In words: NCI-60 screen, CNS Cancer U251. Particulars: U251, 10^−5 M one dose. The assay is classed as cell-based, human.
The next assay has as its system MALME-3M. In words: NCI-60 screen, Melanoma MALME-3M. It is filed as cell-based, human. As to conditions: 10^−5 M one dose.
For the next assay, the system named is MDA-MB-435. Kind of assay: NCI-60 screen, Melanoma MDA-MB-435. It is filed as cell-based, human. Particulars: MDA-MB-435, 10^−5 M one dose. The protocol:
The search for the cytotoxic activity of new derivatives usually starts with in vitro cell-based screening. Four compounds 2b (NSC D-745983/1), 3b (NSC D-766111/1), 4b (NSC D-785591/1) and 4c (NSC D-771706/1), selected by the National Cancer Institute were tested in the anticancer screen for a panel of approximately 60 human disease-oriented tumor cell lines, organized into subpanels derived from nine human cancer types—leukemia, melanoma, and cancers of the lung, colon, brain, breast, ovary, prostate, and kidney. They were initially tested at only one concentration of 10 µM (10^−5 M) for each cell line, which were inoculated and preincubated on a microtiter plate for […]. The results of the one-dose anticancer assay for the tested new compounds are reported as the percentage of the treated cell growth in comparison with untreated no-drug control. This allows for detection of the growth inhibition—values 0–100 and cytotoxicity; negative numbers mean cell death.
Antitumor activity in five dose testing (10^−4−10^−8 M) is expressed by three different dose–response parameters for each of the 60 human tumor cell lines. The GI50 value (molar concentration causing a half-growth inhibition), TGI (molar concentration required for total growth inhibition), which signifies the cytostatic effect, and LC50 (molar concentration of the compound required for 50% cell death). LC50 signifies the cytotoxic effect. […] Nevertheless, the selectivity for GI50 can be seen for several cell lines within subpanel leukemia (SR, log GI50 −6.36) and non-small cell lung cancer (NCI-H522, log GI50 −6.69).
The antitumor screening (NCI-60) was performed at the National Cancer Institute, Bethesda, USA. A total panel of approximately 60 human tumor cell lines derived from nine different cancer types (leukemia, non-small cell lung, colon, brain, melanoma, ovarian, renal, prostate and breast) formed the basis of this in vitro test. The origins and processing of the cell lines used in the study were described previously. First, the compounds were evaluated in a primary anticancer assay at 10^−5 M. Results for each tested compound are reported as the percent of growth of the treated cells. […] The human tumor cell lines of the cancer screening panel were grown in an RMPI 1640 medium containing 5% fetal bovine serum and 2 mM of L-glutamine. Each cell line was inoculated and preincubated at 37 °C, 5% CO2, 95% air and 100% relative humidity for 24 h, before the addition of the test compound into 96-well microtiter plates in 100 µL at plating densities ranging from 5000 to 40,000 cells/well. The density of inoculum depends on the type of tumor cell and its growth characteristics. The screened compounds were solubilized in dimethyl sulfoxide at 400-fold the desired final concentration and stored frozen. At the time of the test agents’ addition, an aliquot of frozen concentrate was thawed and diluted to twice the desired final concentration with complete medium containing 50 µg/mL gentamicin. Next, the test compounds were evaluated at the four additional 10-fold dilutions to reach the final concentrations plus control. Aliquots of 100 µL of the different dilutions (100, 10, 1, […] µM/mL) of the tested compounds were added to microtiter wells, and the culture was incubated for 48 h under the same conditions. Cell were fixed in situ by the addition of 50 µL of cold 50% trichloroacetic acid and incubated for 60 min at 4 °C. The supernatant was discarded; plates were washed five times with water and air-dried. Sulforhodamine B at 0.4% in 1% acetic acid, 100 µL, was added to each well, then plates were incubated for 10 min at room temperature. Unbound dye was removed by washing five times with 1% acetic acid and air dried. The protein-bound stain was solubilized with a […] trizma base and the absorbance was read on an automated plate reader. A wavelength of 515 nm was used to read optical densities. […]

In a further assay the test system is SK-MEL-28. In words: NCI-60 screen, Melanoma SK-MEL-28. It is filed as cell-based. Particulars: SK-MEL-28, 10^−5 M one dose.
In the next assay the test system is UACC-62. In words: NCI-60 screen, Melanoma UACC-62. Particulars: UACC-62, 10^−5 M one dose. It is filed as cell-based, human.
Another assay relates to SK-OV-3. In words: NCI-60 screen, Ovarian Cancer SK-OV-3. The assay is classed as cell-based, human. As to conditions: SK-OV-3, 10^−5 M one dose.
The subject of the next assay is 786-0. In words: NCI-60 screen, Renal Cancer 786-0. It is filed as cell-based. As to conditions: 786-0, 10^−5 M one dose.
In another assay the test system is TK-10. In words: NCI-60 screen, Renal Cancer TK-10. It is filed as cell-based, human. As to conditions: TK-10, 10^−5 M one dose.
In another assay the test system is DU-145. In words: NCI-60 screen, Prostate C. DU-145. It is filed as cell-based. Particulars: DU-145, 10^−5 M one dose.
The test system of another assay is MCF7. Kind of assay: NCI-60 screen, Breast Cancer MCF7. As to conditions: MCF7, 10^−5 M one dose. The assay is classed as cell-based, human.
The next assay concerns BT-549. In words: NCI-60 screen, Breast Cancer BT-549. The assay is classed as cell-based, human. Particulars: BT-549, 10^−5 M one dose.
A further assay has as its system PC-3. Kind of assay: NCI-60 screen, Prostate C. PC-3. The assay is classed as cell-based. As to conditions: PC-3, 10^−5 M one dose.

Structures are written as SMILES. Entries after “also recorded” stand apart in the source; their conditions may differ.

Regarding `CCNc1nc(C(F)(F)F)nc2c1sc(=S)n2-c1ccccc1` [Compound 4b, 7-(ethylamino)-3-phenyl-5-(trifluoromethyl)[1, 3]thiazolo[4,5-d]pyrimidine-2(3H)-thione], the “activity in the one-dose assay (in words)” value in assay [1] was “insufficient activity; also recorded: inactive”. Moreover, in assay [1], the “Mean Growth %” value worked out at 96.94%. Besides, the “Growth of Cells (%)” value in the assay with SR is 83.46%; with KM12 it was 89.17%; with SF-268, 104.72%; in the assay with U251, 93.27%; in the assay with MALME-3M, 144.23%; with MDA-MB-435 it was 112.84%. Also, the “Growth of Cells (%)” value in the assay with SK-MEL-28 is 112.46%; with UACC-62, 93.86%; in the assay on SK-OV-3, 101.70%; in the assay with 786-0 it was 101.39%; in the assay on TK-10, 88.79%; in the assay with DU-145, 101.28%. Moreover, the figures for the “Growth of Cells (%)” value in the assay with MCF7 and in the assay with BT-549 were 96.38% and 95.21%, respectively.
Regarding `Fc1ccc(CNc2nc(C(F)(F)F)nc3c2sc(=S)n3-c2ccccc2)cc1` [Compound 4c], the “activity in the one-dose assay (in words)” value in [1] is “insufficient activity; also recorded: inactive”. The “Mean Growth %” value in assay [1] came out at 105.13%. Further, the “Growth of Cells (%)” value in the assay on SR turned out to be 94.72%; with KM12, 113.23%; in the assay with SF-268, 109.32%; with MALME-3M, 106.31%; in the assay with MDA-MB-435, 102.86%; in the assay on SK-MEL-28, 110.02%. Besides, the “Growth of Cells (%)” value with UACC-62 was determined as 105.93%; in the assay with SK-OV-3, 99.96%; in the assay on 786-0, 99.38%; with TK-10, 130.70%; in the assay with PC-3, 100.51%; in the assay with DU-145, 122.63%. The “Growth of Cells (%)” value is 98.77% in the assay on MCF7 and 98.87% in the assay on BT-549.

The values are drawn from PMC8778818, “Synthesis, Structural Characterization and Anticancer Activity of New 5-Trifluoromethyl-2-thioxo-thiazolo[4,5-d]pyrimidine Derivatives” (Pharmaceuticals, 2022).
